The source of these data is paper PMC3280530, “Marine Compounds Selectively Induce Apoptosis in Female Reproductive Cancer Cells but Not in Primary-Derived Human Reproductive Granulosa Cells” (Marine Drugs, 2012).

Experiment [1] deals with primary-derived human reproductive granulosa cells (HGC). Briefly: MTT cell viability assay. Format: cell-based. The following applies: for IC50: Homo sapiens, HGC, MTT. The protocol: (§1) For cell assays, the D. orbita fractions were prepared fresh on the day of the experiment by dissolving in dimethyl sulfoxide (DMSO; 100%) at 100× the final concentration. These were diluted to a range of working concentrations (0.001–0.5 mg/mL) in complete cell assay medium to give a final working concentration per well of 1% DMSO. All samples were filtered through a […] (Sartorius) filter before use.
(§2) The primary-derived granulosa cells, along with the KGN, JAr and OVCAR-3 cell lines (10,000 cells per well) were plated into sterile white (opaque) 96-well plates (Interpath) and clear sterile 96-well plates (Interpath) in 0.1 mL per well of complete cell culture medium for 24 h (granulosa, KGN and OVCAR-3 cells) and 2 h (for JAr cells) to allow cell adherence. Standard curves of 0–40,000 cells per well (primary granulosa cells) and 0–80,000 cells per well (for KGN, JAr and OVCAR-3 cells) in six replicate wells were plated into clear 96-well plates, alongside the test plates. After the initial cell adherence period, spent media (media deficient of nutrients and serum) were discarded and primary-derived granulosa, KGN, JAr and OVCAR-3 cells were treated with the two D. orbita fractions at concentrations of 0.005, 0.01, 0.05, 0.1, and 0.5 mg/mL in a final volume of 0.1 mL per well in triplicate wells, for 4 and 24 h at 37 °C + 5% CO2. 1 h prior to the end of eachincubation period two positive controls were added; one for apoptosis (1 μg/mL DNase I), and the second for necrosis (2 μL per well of a cell lysis buffer; Promega). This experiment was repeated on three separate occasions (n = 3).
(§3) After 4, 24, 48 and 72 h exposure to D. orbita fractions in clear 96-well plates, media and all dead unattached cells were removed. The remaining adherent cells were rinsed with sterile 1× PBS and the MTT assay was performed. The MTT assay measures the reduction of a yellow substrate to formazan, a purple precipitate, by the mitochondrial succinate dehydrogenase enzymes. A solution of 0.5 mg/mL MTT (was added to wells in a final volume of 0.1 mL. The plates were then incubated for 1 h (JAr cells) and 18 h (KGN, OVCAR-3 and GC cells) at 37 °C and 5% CO2. At the end of the incubation period, 80 μL/well 20% SDS in 0.02 M HCl was added and plate was incubated for a further 1 h at room temperature in the dark. The absorbance was the measured at 570 nm, with reference absorbance 630 nm, using an automatic spectrophotometer using KC Junior software. This assay was repeated on three separate occasions (n = 3).
(In general: Formazan colour is commonly taken as a measure of viable cells.)

The subject of another experiment is JAr cells. Nature of the experiment: MTT cell viability assay. Format: cell-based. Particulars: Homo sapiens. The protocol: as §1, §2, §3
Experiment [2] deals with primary-derived human reproductive granulosa cells (HGC). Briefly: TUNEL staining (apoptosis). It is filed as cell-based. Particulars: for TUNEL positive cells: 4 h, 0.05 mg/mL; for TUNEL labelled cells: 24 h, 0.005 mg/mL. The protocol: Primary-derived human granulosa cells and KGN cells were plated into Nunc Lab-Tek II CC2 Chamber Slides at 30,000 cells per chamber well in a final volume of 0.3 mL of DMEM/F12 + 10% FBS complete cell culture medium and incubated for 24 h at 37 °C + 5% CO2 to allow cell attachment to slides. Spent media (media deficient of nutrients and serum) and non-viable and non-adherent cellswere discarded and replaced with the D. orbita fractions at concentrations of 0.005, 0.01 and 0.05 mg/mL in a final volume of 0.3 mL of DMEM/F12 + 10% medium. A medium-only and a 1% DMSO control were also added before incubation for 4 and 24 h at 37 °C + 5% CO2. This experiment was repeated on three separate occasions (n = 3). The supernatant was removed and the cells rinsed with PBS before fixation with 4% paraformaldehyde for 25 min at room temperature. The DeadEnd™ Fluorometric TUNEL System (Promega) was performed as recommended by the manufacturer. Briefly the cells were treated with 0.2% Triton X-100 for 5 min, to permeablize the cells. The cells were rinsed in PBS before the addition of 50 μL of rTdT incubation buffer (Promega) at 37 °C for 1 h, protected from light. Cells were rinsed in 2× sodium chloride and sodium citratesolution (Promega) for 15 min at room temperature (25 °C) then rinsed again with PBS. The cells were counter-stained with 1 μg/mL propidium iodide (PI). A separate positive control slide of 1 μg/mL DNase I, and a negative control slide of buffer without rTdT, was prepared in conjunction with treatment slides. Cells were examined immediately and photographed at 200 and 400× magnification using a Fluorescence Olympus BX50 Microscope with filter Chroma 31001 at excitation 450–495 nm, Dichroic 505 and emission 515–555 nm for the green fluorescein of TUNEL and Chroma 31002 at excitation 515–550 nm, Dichroic 565 and emission 575–615 nm for the red fluorescence of the PI staining. Photomicrographs of four fields of view were taken for each treatment in each repeat of theassay and the number of TUNEL positive nuclei, stained bright green, were calculated as a fraction of the total number of PI stained nuclei, stained bright red, in each image. The average of the four fields was then calculated.

Experiment [3] has the same test system. Nature of the experiment: LDH membrane integrity assay (necrosis). Format: cell-based. The protocol: as §2
(§4) After 4 and 24 h exposure to the D. orbita fractions in opaque 96-well plates, a combined membrane integrity and caspase 3/7 assay were performed on the primary-derived granulosa cells and KGN cells. The CytoTox-ONE Homogeneous Membrane Integrity Assay kit (Promega) was applied according to the manufacturer’s instructions. After the fluorescence was read at 535EX/590EM, the Caspase-Glo 3/7® assay (Promega) was applied to the primary granulosa cells and KGN cells according to the manufacturer’s instructions for1h and the plates were read on full light to capture total luminescence. The LDH-membrane integrity assay alone was performed on the JAr and OVCAR-3 cells using the CytoTox-ONE Homogeneous Membrane Integrity Assay kit (Promega). This assay was repeated on three separate occasions (n = 3).

Experiment [4] deals with caspase-3 and -7 activity in KGN cells. Briefly: Caspase-Glo 3/7 assay. Format: cell-based, human. Particulars: for concentration at which caspase-3 and -7 activity (apoptosis) significantly increased: 4 h treatment. The protocol: as §2, §4
Experiment [5] concerns caspase-3 and -7 activity in HGC. Nature of the experiment: Caspase-Glo 3/7 assay. Format: cell-based, human. Particulars: 4 h treatment. The protocol:
as §2, §4

As a reminder, the IC50 is the midpoint of a concentration-inhibition curve. Low readings indicate greater potency, high ones weaker potency. As for `O=C1Nc2cc(Br)ccc2C1=O` [6-Bromoisatin, 6-bromoisatin], the IC50 is more than 4.46 mM in experiment [1] (4 h); more than 4.46 mM in experiment [1] (24 h); 1.78 mM in experiment [1] (48 h); 2.23 mM in experiment [1] (72 h); 223 µM in the experiment on JAr cells (4 h); 446 µM with JAr cells (24 h). Further, in the experiment on JAr cells (48 h), half-maximal inhibition (IC50) required 446 µM. The same molecule returned a TUNEL positive cells in experiment [2] of 27%. The TUNEL labelled cells in experiment [2] came out at 10%. The “concentration required to cause LDH release (necrosis)” value in experiment [3] (4 h exposure) and in experiment [3] (24 h exposure) was 2232 µM throughout. Also, the “concentration at which caspase-3 and -7 activity (apoptosis) significantly increased” value in experiment [4] was determined as 22 µM. Also, the “change of caspase-3 and 7 activity” value in experiment [4] (24 h, 22–2232 µM (0.005–0.5 mg/mL), dose-dependent) was “significantly decreased”. In addition, in experiment [5], the “concentration at which caspase-3 and -7 activity was detected” value came out at 0.1 mg/mL.
Consider `CSC1=Nc2cc(Br)ccc2C1=O` [Tyrindoleninone, tyrindoleninone], for which the IC50 in experiment [1] (4 h) stood at 3.52 mM; in experiment [1] (24 h) it was 1.56 mM; in experiment [1] (48 h), 1.56 mM; in experiment [1] (72 h), 1.56 mM; in the experiment on JAr cells (4 h), 39 µM; with JAr cells (24 h) it was 117 µM. In addition, the midpoint of inhibition with JAr cells (48 h), the IC50, lay at 78 µM. The “IC50 values fold lower for all three reproductive cancer cell lines than for the HGC” value in experiment [1] (after 24, 48 and 72 h treatment, KGN, JAr, OVCAR-3 vs HGC) was “approximately 10 fold”. In experiment [2], the TUNEL positive cells is on record as 31%. In addition, the TUNEL labelled cells in experiment [2] came to 16%. For the same molecule, the “LDH released (fluorescence 535EX/590EM)” value in experiment [3] (4 h, 1953 µM (0.5 mg/mL)) is listed as 876 ± 1084. The “concentration required to cause LDH release (necrosis)” value in experiment [3] (4 h exposure) and in experiment [3] (24 h exposure) was 1953 µM each time. For the same molecule, in experiment [4], the “concentration at which caspase-3 and -7 activity (apoptosis) significantly increased” value was 20 µM. Besides, the “concentration at which caspase-3 and -7 activity (apoptosis) was noted” value in experiment [5] was determined as 391 µM.
